Read-outs that look alike come from different tables or passages of the source.
Assays:
[1] = molecular target: T1, TcMDO (Trypanosoma cruzi MacroD-like protein) (Trypanosoma cruzi, UniProt Q4DQ03); assay: isothermal titration calorimetry; type: binding
T1 construct: gene Tc00.1047053509179.20; full-length, codon-optimized synthetic cDNA, pNH-TrxT vector, E. coli BL21(DE3), fusion tags cut with TEV protease; crystal structure comprises residues 13-257
T1 sequence (Q4DQ03 1-267): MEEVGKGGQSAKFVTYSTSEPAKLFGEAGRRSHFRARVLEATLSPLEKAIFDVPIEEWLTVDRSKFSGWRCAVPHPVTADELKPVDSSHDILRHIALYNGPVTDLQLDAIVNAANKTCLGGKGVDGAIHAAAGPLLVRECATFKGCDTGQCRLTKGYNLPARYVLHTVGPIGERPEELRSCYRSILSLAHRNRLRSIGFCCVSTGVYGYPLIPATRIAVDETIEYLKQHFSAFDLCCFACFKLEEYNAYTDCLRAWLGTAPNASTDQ

[2] = molecular target: T2, TbMDO (Trypanosoma brucei MacroD-like protein) (Trypanosoma brucei, UniProt C9ZP98); assay: isothermal titration calorimetry; type: binding
T2 construct: gene TbgDal_V3640; full-length, codon-optimized synthetic cDNA, pNH-TrxT vector, E. coli BL21(DE3), fusion tags cut with TEV protease; crystal structures comprise residues 11-261
T2 sequence (C9ZP98 1-265): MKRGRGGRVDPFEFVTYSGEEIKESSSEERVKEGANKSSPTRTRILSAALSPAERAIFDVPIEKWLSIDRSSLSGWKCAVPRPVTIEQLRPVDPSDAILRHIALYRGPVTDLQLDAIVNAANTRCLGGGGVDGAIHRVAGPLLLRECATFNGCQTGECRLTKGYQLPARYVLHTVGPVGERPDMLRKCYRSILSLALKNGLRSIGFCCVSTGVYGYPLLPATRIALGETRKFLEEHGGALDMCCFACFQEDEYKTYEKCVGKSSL

[3] = molecular target: T1, TcMDO (Trypanosoma cruzi MacroD-like protein); assay: ESI-TOF mass spectrometry of hydrolysis products; type: biochemical; settings: 0.5 mM 2′/3′-O-acetyl-ADP-ribose, 50 μM protein, 22 °C, 4 h; isomer mixture
[4] = molecular target: T2, TbMDO (Trypanosoma brucei MacroD-like protein); assay: ESI-TOF mass spectrometry of hydrolysis products; type: biochemical; settings: 0.5 mM 2′/3′-O-acetyl-ADP-ribose, 50 μM protein, 22 °C, 4 h; isomer mixture
[5] = pH 7.5, 50 mM HEPES, 250 mM NaCl, 0.5 mM TCEP, 25 °C, three titrations, same data as the Ka row, read-out: affinities

Nc1ncnc2c1ncn2[C@@H]1O[C@H](COP(=O)(O)OP(=O)(O)OC[C@H]2OC(O)[C@H](O)[C@@H]2O)[C@@H](O)[C@H]1O (some centres unmarked) [ADP-ribose]
Kd [1, 5]: 0.2 µM | Kd [2, 5]: 1.3 µM

Nc1ncnc2c1ncn2[C@@H]1O[C@H](COP(=O)(O)OP(=O)(O)O)[C@@H](O)[C@H]1O [ADP]
Kd ([1]; read-out: K (converted)): 820 µM | Kd ([1]; read-out: KD): 800 µM | Kd ([2]; read-out: K (converted)): 1850 µM | Kd ([2]; read-out: KD): 1900 µM

CC(=O)O[C@H]1C(O)O[C@H](COP(=O)(O)OP(=O)(O)OC[C@H]2O[C@@H](n3cnc4c(N)ncnc43)[C@H](O)[C@@H]2O)[C@H]1O (some centres unmarked) [O-acetyl-ADP-ribose]
ESI-TOF mass spectrometry of hydrolysis products [3]: Incubation of O-acetyl-ADP-ribose with both proteins resulted in the decrease of the mass | ESI-TOF mass spectrometry of hydrolysis products [4]: Incubation of O-acetyl-ADP-ribose with both proteins resulted in the decrease of the mass
